The source of these data is publication PMC3057119 (Bioorganic & medicinal chemistry letters, 2011).

The subject of the experiment is p53-dependent luciferase reporter in U2OS cells. The experiment is described as follows: p53-dependent luciferase reporter activation. The experiment is classed as cell-based. Particulars: U2OS cells stably expressing p53-dependent luciferase reporter, 5 μM. In general terms: In a reporter assay the amount or activity of a reporter protein is the signal.

On to `COc1ccc(C2=N[C@@H](c3ccc(Cl)cc3)[C@@H](c3ccc(Cl)cc3)N2C(=O)N2CCNC(=O)C2)c(OC(C)C)c1` [Nutlin-3, nutlin-3], for which the “increase in luciferase activation” value is reported as 4 fold.
